US9714232B2, “Substituted piperazine compounds and methods of use thereof” (Sunshine Lake Pharma Co., Ltd., priority 2013, dated 2017)

How the values were obtained:
[1] = target: serotonin transporter in rat synaptosome (Rattus norvegicus (Rat), UniProt P31652); assay: Inhibitory effect on [3H]5-HT uptake in rat synaptosome; format: biochemical; settings: rat brain synaptosomes, 0.1 μCi [3H]5-HT, 37° C., 15 minutes
Protocol: The synaptosomes (150 μg) prepared from a rat brain were incubated at 37° C. for 15 minutes with 0.1 μCi [^3H]5-HT in the absence or presence of the test compound or the reference compound in a buffer solution containing 106.2 mM NaCl, 4.5 mM KCl, 2.25 mM MgSO4, 1.08 mM NaH2PO4, 22.5 mM NaHCO3, 9.9 mM glucose, 9 μM EGTA and 45 μM ascorbic acid (pH 7.4).
The basal control activity was determined by incubating the same mixture at 4° C. for 15 minutes in the presence of 10 μM imipramine to block the uptake of 5-HT, which was taken as the standard reference compound and tested in each experiment at several concentrations to obtain an inhibition curve.
Following the incubation, the samples were filtered rapidly under vacuum through glass fiber filters (GF/B, Packard) and rinsed twice with an ice-cold incubation buffer using a 96-sample cell harvester (Unifilter, Packard) to eliminate free [^3H]5-HT. The filters were dried and the retained radioactivity was measured in a scintillation counter (Topcount, Packard) using a scintillation cocktail (Microscint 0, Packard). The experimental results were expressed as a percent inhibition of the control uptake of [^3H]5-HT.
Inhibition of serotonin transporter in rat synaptosome was measured by the concentrations of [^3H]5-HT.

human 5-HT1A receptor = human 5-HT1A receptor (Homo sapiens (Human), UniProt P08908); assay: Affinity for human 5-HT1A receptor ([3H]8-OH-DPAT binding, HEK-293 cell homogenates); settings: 0.3 nM [3H]8-OH-DPAT, human HEK-293 cell homogenates, 22° C., 60 minutes; Ki from IC50 by ChengPrusoff equation
Protocol: Human HEK-293 cell homogenates (36 μg protein) were incubated at 22° C. for 60 minutes with 0.3 nM [^3H]8-0H-DPAT (Perkin-Elmer) in the absence or presence of the test compound in a buffer solution containing 50 mM Tris-HCl (pH 7.4), 10 mM MgSO4, 0.5 mM EDTA and 2 μg/ml aprotinine.
The non-specific binding value was determined by incubating the same mixture in the presence of 10 μM 8-OH-DPAT, which was used as the standard reference compound and tested in each experiment at several concentrations to obtain a competition curve.
Following the incubation, the samples were filtered rapidly under vacuum through glass fiber filter (GF/B, Packard) presoaked with 0.3% PEI and rinsed several times with ice-cold 50 mM Tris-HCl using a 96-sample cell harvester (Unifilter, Packard). The filters were dried and the retained radioactivity was measured in a scintillation counter (Topcount, Packard) using a scintillation cocktail (Microscint 0, Packard). The experimental results were expressed as a percent inhibition of the control radioligand specific binding.
Binding assay of [^3H] 8-OH-DPAT (0.3 nM) with 5-HT1A receptor in human HEK-293 cell was tested by scintillation proximity assay of membrane.

human 5-HT1A receptor, sequence (P08908 whole entry): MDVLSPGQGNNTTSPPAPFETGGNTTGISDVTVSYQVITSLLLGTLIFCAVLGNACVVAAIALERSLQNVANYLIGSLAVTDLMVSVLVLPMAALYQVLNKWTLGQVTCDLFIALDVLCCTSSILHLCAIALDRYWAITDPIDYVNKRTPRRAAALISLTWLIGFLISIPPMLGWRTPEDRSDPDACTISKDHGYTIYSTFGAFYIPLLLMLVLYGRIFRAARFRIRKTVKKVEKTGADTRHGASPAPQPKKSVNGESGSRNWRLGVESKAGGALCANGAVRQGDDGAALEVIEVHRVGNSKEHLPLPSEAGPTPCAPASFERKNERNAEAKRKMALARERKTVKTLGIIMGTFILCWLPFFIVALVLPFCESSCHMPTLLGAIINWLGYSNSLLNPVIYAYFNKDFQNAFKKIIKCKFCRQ
serotonin transporter in rat synaptosome, sequence (P31652 whole entry): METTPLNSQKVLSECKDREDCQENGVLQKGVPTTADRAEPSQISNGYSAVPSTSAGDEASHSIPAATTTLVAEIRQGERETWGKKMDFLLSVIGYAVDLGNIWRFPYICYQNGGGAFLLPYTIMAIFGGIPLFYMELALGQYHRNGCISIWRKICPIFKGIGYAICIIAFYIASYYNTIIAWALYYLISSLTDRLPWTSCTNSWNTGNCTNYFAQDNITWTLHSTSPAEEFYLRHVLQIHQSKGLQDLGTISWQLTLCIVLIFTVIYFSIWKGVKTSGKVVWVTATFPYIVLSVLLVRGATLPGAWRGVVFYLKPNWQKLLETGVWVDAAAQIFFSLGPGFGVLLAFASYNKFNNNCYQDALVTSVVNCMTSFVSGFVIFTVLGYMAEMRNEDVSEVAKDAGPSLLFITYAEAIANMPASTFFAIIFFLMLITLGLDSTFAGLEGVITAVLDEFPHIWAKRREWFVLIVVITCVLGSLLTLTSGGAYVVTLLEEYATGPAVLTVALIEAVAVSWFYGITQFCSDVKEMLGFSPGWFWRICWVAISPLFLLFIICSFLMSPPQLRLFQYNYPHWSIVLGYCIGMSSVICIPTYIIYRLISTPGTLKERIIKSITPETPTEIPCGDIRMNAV

Row | Structure (SMILES) | IC50 [1] [nM] | Ki (human 5-HT1A receptor) [nM]
1 | N#Cc1ccc2[nH]cc(CCCCN3CCN(c4ccc(-n5cc(F)cc(F)c5=O)cc4)CC3)c2c1 [Example 25, 3-(4-(4-(4-(3,5-difluoro-2-oxopyridin-1(2H)-yl)phenyl)piperazin-1-yl)butyl)-1H-indole-5-carbonitrile] | 1.4 | 0.18
2 | N#Cc1ccc2[nH]cc(CCCN3CCN(c4ccc(-n5cc(F)cc(F)c5=O)cc4)CC3)c2c1 [Example 26, 3-(3-(4-(4-(3,5-difluoro-2-oxopyridin-1(2H)-yl)phenyl)piperazin-1-yl)propyl)-1H-indole-5-carbonitrile] | 1.3 | 0.31
3 | N#Cc1ccc2[nH]cc(CCN3CCN(c4ccc(-n5cc(F)cc(F)c5=O)cc4)CC3)c2c1 [Example 27, 3-(2-(4-(4-(3,5-difluoro-2-oxopyridin-1(2H)-yl)phenyl)piperazin-1-yl)ethyl)-1H-indole-5-carbonitrile] | 5.5 | 68
4 | N#Cc1ccc2[nH]cc(CCCCCN3CCN(c4ccc(-n5cc(F)cc(F)c5=O)cc4)CC3)c2c1 [Example 28, 3-(5-(4-(4-(3,5-difluoro-2-oxopyridin-1(2H)-yl)phenyl)piperazin-1-yl)pentyl)-1H-indole-5-carbonitrile] | 2.2 | 1.5
5 | N#Cc1ccc2[nH]cc(CCCN3CCN(c4ccc(-n5ccc6ccccc6c5=O)cc4)CC3)c2c1 [Example 30, 3-(3-(4-(4-(1-oxoisoquinolin-2(1H)-yl)phenyl)piperazin-1-yl)propyl)-1H-indole-5-carbonitrile] | 4.3 | 3.6
6 | N#Cc1ccc2[nH]cc(CCCCN3CCN(c4ccc(-n5ccc6ncccc6c5=O)cc4)CC3)c2c1 [Example 31, 3-(4-(4-(4-(5-oxo-1,6-naphthyridin-6(5H)-yl)phenyl)piperazin-1-yl)butyl)-1H-indole-5-carbonitrile] | 0.23 | 0.5
7 | N#Cc1ccc2[nH]cc(CCCN3CCN(c4ccc(-n5ccc6ncccc6c5=O)cc4)CC3)c2c1 [Example 32, 3-(3-(4-(4-(5-oxo-1,6-naphthyridin-6(5H)-yl)phenyl)piperazin-1-yl)propyl)-1H-indole-5-carbonitrile] | 0.93 | 1.7
8 | N#Cc1ccc2[nH]cc(CCCCN3CCN(c4ccc(-n5ccc6occc6c5=O)cc4)CC3)c2c1 [Example 33, 3-(4-(4-(4-(4-oxofuro[3,2-c]pyridin-5 (4H)-yl)phenyl)piperazin-1-yl)butyl)-1H-indole-5-carbonitrile] | 0.53 | 0.14
9 | N#Cc1ccc2[nH]cc(CCCN3CCN(c4ccc(-n5ccc6occc6c5=O)cc4)CC3)c2c1 [Example 34, 3-(3-(4-(4-(4-oxofuro[3,2-c]pyridin-5 (4H)-yl)phenyl)piperazin-1-yl)propyl)-1H-indole-5-carbonitrile] | 4.2 | 0.1
10 | N#Cc1ccc2[nH]cc(CCCCN3CCN(c4ccc(-n5ccncc5=O)cc4)CC3)c2c1 [Example 35, 3-(4-(4-(4-(2-oxopyrazin-1(2H)-yl)phenyl)piperazin-1-yl)butyl)-1H-indole-5-carbonitrile] | 0.8 | 0.8
11 | N#Cc1ccc2[nH]cc(CCCN3CCN(c4ccc(-n5ccncc5=O)cc4)CC3)c2c1 [Example 36, 3-(3-(4-(4-(2-oxopyrazin-1(2H)-yl)phenyl)piperazin-1-yl)propyl)-1H-indole-5-carbonitrile] | 1.8 | 3
12 | N#Cc1ccc2[nH]cc(CCCCN3CCN(c4ccc(N5CCCNC5=O)cc4)CC3)c2c1 [Example 37, 3-(4-(4-(4-(2-oxotetrahydropyrimidin-1(2H)-yl)phenyl)piperazin-1-yl)butyl)-1H-indole-5-carbonitrile] | 1.3 | 1.3
13 | N#Cc1ccc2[nH]cc(CCCN3CCN(c4ccc(N5CCCNC5=O)cc4)CC3)c2c1 [Example 38, 3-(3-(4-(4-(2-oxotetrahydropyrimidin-1(2H)-yl)phenyl)piperazin-1-yl)propyl)-1H-indole-5-carbonitrile] | 1.4 | 1.9
